Experimental data: ChEMBL document CHEMBL3400058, “Synthesis, anticonvulsant activity and molecular modeling study of some new hydrazinecarbothioamide, benzenesulfonohydrazide, and phenacylacetohydrazide analogues of 4(3H)-quinazolinone” (Bioorg Med Chem Lett, 2015)

Key:
Mus musculus [1] = assay: Anticonvulsant activity in mouse assessed as prolongation of convulsions onset time at 150 mg/kg, ip administered 20 mins prior to PTZ challenge relative to control; type: functional; settings: route intraperitoneal
Mus musculus [2] = assay: Anticonvulsant activity in mouse assessed as decrease in convulsion frequency at 150 mg/kg, ip administered 20 mins prior to PTZ challenge relative to control; type: functional; set-up: scale not given: the % may be the effect or the level left; settings: route intraperitoneal
Mus musculus [3] = assay: Anticonvulsant activity in mouse assessed as delay of death time at 150 mg/kg, ip administered 20 mins prior to PTZ challenge relative to control; type: functional; settings: route intraperitoneal
Mus musculus [4] = assay: Anticonvulsant activity in mouse assessed as prolongation of convulsions onset time at 150 mg/kg, ip administered 20 mins prior to picrotoxin challenge relative to control; type: functional; settings: route intraperitoneal
Mus musculus [5] = assay: Anticonvulsant activity in mouse assessed as decrease in convulsion frequency at 150 mg/kg, ip administered 20 mins prior to picrotoxin challenge relative to control; type: functional; set-up: scale not given: the % may be the effect or the level left; settings: route intraperitoneal
Mus musculus [6] = assay: Anticonvulsant activity in mouse assessed as delay of death time at 150 mg/kg, ip administered 20 mins prior to picrotoxin challenge relative to control; type: functional; settings: route intraperitoneal
Mus musculus [7] = assay: Anticonvulsant activity in mouse assessed as protection against PTZ-induced convulsions at 150 mg/kg, ip administered 20 mins prior to PTZ challenge relative to control; type: functional; settings: route intraperitoneal
Mus musculus [8] = species on record: Mus musculus; assay: Protective index, ratio of TD50 for mouse to ED50 for anticonvulsant activity in mouse
[9] = Therapeutic index, ratio of LD50 for mouse to ED50 for anticonvulsant activity in mouse; type: organism-based; settings: in vivo, read-out: Ratio LD50/ED50
Mus musculus [10] = assay: Anticonvulsant activity in mouse assessed as prolongation of convulsions onset time at 50 mg/kg, ip administered 20 mins prior to PTZ challenge relative to control; type: functional; settings: route intraperitoneal
Mus musculus [11] = assay: Anticonvulsant activity in mouse assessed as decrease in convulsion frequency at 50 mg/kg, ip administered 20 mins prior to PTZ challenge relative to control; type: functional; set-up: scale not given: the % may be the effect or the level left; settings: route intraperitoneal
Mus musculus [12] = assay: Anticonvulsant activity in mouse assessed as delay of death time at 50 mg/kg, ip administered 20 mins prior to PTZ challenge relative to control; type: functional; settings: route intraperitoneal
Mus musculus [13] = assay: Anticonvulsant activity in mouse assessed as protection against PTZ-induced convulsions at 50 mg/kg, ip administered 20 mins prior to PTZ challenge relative to control; type: functional; settings: route intraperitoneal
Mus musculus [14] = assay: Toxicity in mouse at 150 mg/kg, […] 20 mins prior to PTZ challenge relative to control; type: organism-based; set-up: dose 150 mg/kg; settings: in vivo

SMILES | Activity (Mus musculus [1]) | Activity (Mus musculus [2]) | Activity (Mus musculus [3]) | other results
O=C(CSc1nc2ccc(Cl)cc2c(=O)n1-c1ccccc1)NNC(=O)c1ccccc1 | 114% | 87% | 0% | 
CCCC(=O)NNC(=O)CSc1nc2ccc(Cl)cc2c(=O)n1Cc1ccccc1 | 78% | 61% | 14% | Activity (Mus musculus [4]): 0%
CCC(=O)NNC(=O)CSc1nc2ccc(Cl)cc2c(=O)n1Cc1ccccc1 | 43% | 74% | 0% | 
CCCCC(=O)NNC(=O)CSc1nc2cc(OC)c(OC)cc2c(=O)n1Cc1ccccc1 | 0% | 0% |  | 
COc1cc2nc(SCC(=O)NNC(=O)Cc3ccccc3)n(Cc3ccccc3)c(=O)c2cc1OC | 186% | 68% | 58% | Activity (Mus musculus [4]): 18%; Activity (Mus musculus [5]): 97%; Activity (Mus musculus [6]): 17%
CSc1nc2ccc(Cl)cc2c(=O)n1Cc1ccccc1 | 114% | 61% | 5% | Activity (Mus musculus [4]): 36%; Activity (Mus musculus [5]): 91%; Activity (Mus musculus [6]): 0%
CCC(=O)NNC(=O)CSc1nc2cc(OC)c(OC)cc2c(=O)n1Cc1ccccc1 | 471% | 81% | 216% | Activity (Mus musculus [7]): 100%; Ratio TD50/ED50 (Mus musculus [8]): 4.1; selectivity ratio [9]: 5.1; Activity (Mus musculus [4]): 11%; Activity (Mus musculus [5]): 79%; Activity (Mus musculus [6]): 8%
O=C(CSc1nc2ccc(Cl)cc2c(=O)n1Cc1ccccc1)NNC(=S)Nc1ccccc1 | 0% | 0% |  | 
COc1cc2nc(SCC(=O)NNC(C)=O)n(Cc3ccccc3)c(=O)c2cc1OC | 0% | 0% |  | 
CC(=O)NNC(=O)CSc1nc2ccc(Cl)cc2c(=O)n1-c1ccccc1 | 186% | 48% | 216% | 
O=C(CSc1nc2ccc(Cl)cc2c(=O)n1-c1ccccc1)NNC(=O)Cc1ccccc1 |  |  |  | Activity (Mus musculus [10]): 43%; Activity (Mus musculus [11]): 0%
CCCCC(=O)NNC(=O)CSc1nc2ccc(Cl)cc2c(=O)n1Cc1ccccc1 | 0% | 0% |  | 
Cc1ccc(S(=O)(=O)NNC(=O)CSc2nc3ccc(Cl)cc3c(=O)n2-c2ccccc2)cc1 | 43% | 48% | 40% | 
Cc1ccc(S(=O)(=O)NNC(=O)CSc2nc3ccc(Cl)cc3c(=O)n2Cc2ccccc2)cc1 | 43% | 74% | 47% | 
COc1cc2nc(SCC(=O)NNS(=O)(=O)c3ccc(C)cc3)n(Cc3ccccc3)c(=O)c2cc1OC | 43% | 0% |  | 
O=C(CCc1ccccc1)NNC(=O)CSc1nc2ccc(Cl)cc2c(=O)n1-c1ccccc1 | 43% | 0% |  | 
CCC(=O)NNC(=O)CSc1nc2ccc(Cl)cc2c(=O)n1-c1ccccc1 |  |  |  | Activity (Mus musculus [10]): 1471%; Activity (Mus musculus [11]): 74%; Activity (Mus musculus [12]): 636%; Ratio TD50/ED50 (Mus musculus [8]): 8.5; selectivity ratio [9]: 24.6; Activity (Mus musculus [13]): 100%
COc1cc2nc(SC)n(-c3ccccc3)c(=O)c2cc1OC | 35% | 0% | 461% | 

SMILES | Activity (Mus musculus [1]) | Activity (Mus musculus [2]) | Activity (Mus musculus [3]) | other results
O=C(CSc1nc2ccc(Cl)cc2c(=O)n1Cc1ccccc1)NNC(=S)NCc1ccccc1 | 471% | 61% | 101% | Activity (Mus musculus [4]): 15%; Activity (Mus musculus [5]): 39%; Activity (Mus musculus [6]): 25%
O=C(CSc1nc2ccc(Cl)cc2c(=O)n1Cc1ccccc1)NNC(=O)c1ccccc1 | 185% | 23% | 75% | 
CCCC(CCC)C(=O)[O-].[Na+] [VALPROATE SODIUM] |  |  |  | Activity (Mus musculus [13]): 100%
CCOC(=O)CSc1nc2ccc(Cl)cc2c(=O)n1Cc1ccccc1 | 0% | 0% |  | Activity (Mus musculus [4]): 5%; Activity (Mus musculus [5]): 25%; Activity (Mus musculus [6]): 17%
O=C(CCc1ccccc1)NNC(=O)CSc1nc2ccc(Cl)cc2c(=O)n1Cc1ccccc1 | 685% | 74% | 254% | Activity (Mus musculus [7]): 100%; Ratio TD50/ED50 (Mus musculus [8]): 4.6; selectivity ratio [9]: 9.8
O=C(CSc1nc2ccc(Cl)cc2c(=O)n1Cc1ccccc1)NNC(=O)Cc1ccccc1 | 43% | 61% | 47% | 
COc1cc2nc(SCC(=O)NNC(=O)c3ccccc3)n(Cc3ccccc3)c(=O)c2cc1OC | 0% | 0% |  | 
CSc1nc2ccc(Cl)cc2c(=O)n1-c1ccccc1 | 114% | 0% | 44% | 
CC(=O)NNC(=O)CSc1nc2ccc(Cl)cc2c(=O)n1Cc1ccccc1 |  |  | 303% | Activity (Mus musculus [7]): 100%; Ratio TD50/ED50 (Mus musculus [8]): 8.7; selectivity ratio [9]: 9.7; Activity (Mus musculus [4]): 63%; Activity (Mus musculus [5]): 60%; Activity (Mus musculus [6]): 50%
COc1cc2nc(SC)n(Cc3ccccc3)c(=O)c2cc1OC |  |  |  | Activity (Mus musculus [14]): Toxic
O=C(CSc1nc2ccc(Cl)cc2c(=O)n1-c1ccccc1)NNC(=S)NCc1ccccc1 | 114% | 0% | 145% | 
COc1cc2nc(SCC(=O)NNC(=O)CCc3ccccc3)n(Cc3ccccc3)c(=O)c2cc1OC | 114% | 81% | 0% | 
COc1cc2nc(SCC(=O)NNC(=S)Nc3ccccc3)n(Cc3ccccc3)c(=O)c2cc1OC | 150% | 81% | 5% | Activity (Mus musculus [4]): 4%; Activity (Mus musculus [5]): 89%; Activity (Mus musculus [6]): 25%
CCOC(=O)CSc1nc2ccc(Cl)cc2c(=O)n1-c1ccccc1 | 0% | 0% |  | 
CCCC(=O)NNC(=O)CSc1nc2ccc(Cl)cc2c(=O)n1-c1ccccc1 | 43% | 82% | 75% | 
CCCCC(=O)NNC(=O)CSc1nc2ccc(Cl)cc2c(=O)n1-c1ccccc1 | 114% | 87% | 47% | 
CCCC(=O)NNC(=O)CSc1nc2cc(OC)c(OC)cc2c(=O)n1Cc1ccccc1 | 114% | 0% | 58% | 
COc1cc2nc(SCC(=O)NNC(=S)NCc3ccccc3)n(Cc3ccccc3)c(=O)c2cc1OC | 43% | 38% | 32% | Activity (Mus musculus [4]): 78%; Activity (Mus musculus [5]): 66%; Activity (Mus musculus [6]): 22%
